Experimental findings from PubChem BioAssay (NCI) are described below.

Several values for one entry are separate records, joined by “and”; a condition that tells them apart may be missing. Identical values can stand only once.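 Cells were grown in 96-well plates and exposed to each compound for 48 hours at five concentrations; endpoints were interpolated linearly between bracketing concentrations, or set to the highest concentration if not reached. GI50 = concentration required for 50% inhibition of growth. TGI: concentration producing complete growth inhibition.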

Common to all, as to experiment: NCI-60 cell line screen, 48 h
Experiment [1] deals with HCC-2998 colon.
The subject of experiment [2] is HL-60(TB) leukemia.
For experiment [3], the system named is HOP-62 NSCLC.
Experiment [4] deals with K-562 leukemia.
Experiment [5] relates to LXFL 529 NSCLC.
Experiment [6] deals with MALME-3M melanoma.
The subject of experiment [7] is OVCAR-5 ovarian.
Experiment [8] relates to RPMI-8226 leukemia.
Experiment [9] has as its system HS 578T breast.
Experiment [10] deals with T-47D breast.

`COc1c(O)c(C=O)c2c(O)c(-c3c(C)cc4c(C(C)C)c(OC)c(O)c(C=O)c4c3O)c(C)cc2c1C(C)C`: the TGI in [1] is 5.34 µM; in experiment [2], 41.4 µM; in [3], 9.18 µM; in experiment [4] it was over 100 µM; in experiment [5], 12 µM; in experiment [6], 18.8 µM. The figures for the TGI in [7] and in experiment [8] were 20.7 µM and 22.4 µM, respectively.
With `C/C=C/c1cc(=O)c([C@@H]2OC(=O)c3cc(OC)cc(OC)c32)co1`, the TGI is 90 µM in experiment [1]; over 100 µM in [2]; over 100 µM in experiment [3]; over 100 µM in [4]; 91.6 µM in experiment [5]; over 100 µM in experiment [8].
For `[Cl][Sn]([c]1ccccc1)([c]1ccccc1)[c]1ccccc1`, the TGI is 0.899 µM and 0.0997 µM in [2]; 0.467 µM and 0.188 µM and 0.287 µM in experiment [3]; 23 µM in experiment [9]; 0.892 µM in experiment [4]; 0.131 µM and 0.0798 µM in experiment [5]; 0.456 µM and 0.266 µM and 0.0901 µM in [7]. The TGI in [10] was found to be 0.412 µM. Moreover, the GI50 in [3] is 0.21 µM and 0.0575 µM and 0.132 µM; in experiment [9], 0.378 µM; in experiment [4] it was 0.302 µM; in experiment [5], 0.0353 µM and 0.0227 µM; in experiment [10] it was 0.171 µM.
As to `NC(=O)c1cccc([N+](=O)[O-])c1`, the TGI in [1], in experiment [2], in [3], in experiment [4], in experiment [5] and in experiment [6] was over 100 µM throughout. The TGI in experiment [8] was over 100 µM.
In the case of `Cc1ccc(/C(O)=C/c2nc3ccccc3sc2=O)c(C)c1`, the TGI in experiment [1] was over 100 µM; in experiment [2], 69.6 µM; in [3] it was 97.3 µM; in [9], over 100 µM; in experiment [4] it was over 100 µM; in experiment [6] it was over 100 µM. The figures for the TGI in experiment [7], in experiment [8] and in experiment [10] were over 100 µM, 77.6 µM and over 100 µM, respectively.
In the case of `Cc1ccc([S@](=O)c2occc2C=O)cc1`, the TGI in experiment [1] is 29.3 µM; in [2], 4.25 µM; in [3] it was 35.2 µM; in [9] it was 36.1 µM; in [4] it was 4.25 µM; in [6], 8.45 µM. Also, the TGI in experiment [7] stood at 34.7 µM; in [8] it was 8.04 µM; in experiment [10], 7.11 µM.
